In ChEMBL document CHEMBL5291721, “A preclinical secondary pharmacology resource illuminates target-adverse drug reaction associations of marketed drugs” (Nat Commun, 2023):

Experiments:
[1] = molecular target: T1, 5-hydroxytryptamine receptor 1A (Homo sapiens, UniProt P08908)
T1 sequence (P08908 whole entry): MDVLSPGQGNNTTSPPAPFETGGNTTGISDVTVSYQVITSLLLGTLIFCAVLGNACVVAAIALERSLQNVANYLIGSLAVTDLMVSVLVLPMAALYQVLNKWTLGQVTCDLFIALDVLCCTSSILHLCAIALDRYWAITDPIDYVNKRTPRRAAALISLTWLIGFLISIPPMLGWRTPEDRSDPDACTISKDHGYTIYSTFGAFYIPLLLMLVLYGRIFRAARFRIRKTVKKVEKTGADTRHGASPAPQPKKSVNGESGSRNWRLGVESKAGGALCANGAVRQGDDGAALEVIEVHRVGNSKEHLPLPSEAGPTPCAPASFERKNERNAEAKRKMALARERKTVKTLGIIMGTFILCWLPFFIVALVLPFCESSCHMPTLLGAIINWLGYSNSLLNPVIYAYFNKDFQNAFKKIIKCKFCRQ

[2] = molecular target: Prostaglandin G/H synthase 1 (Homo sapiens, UniProt P23219); assay type: functional
Sequence of Prostaglandin G/H synthase 1 (P23219 whole entry): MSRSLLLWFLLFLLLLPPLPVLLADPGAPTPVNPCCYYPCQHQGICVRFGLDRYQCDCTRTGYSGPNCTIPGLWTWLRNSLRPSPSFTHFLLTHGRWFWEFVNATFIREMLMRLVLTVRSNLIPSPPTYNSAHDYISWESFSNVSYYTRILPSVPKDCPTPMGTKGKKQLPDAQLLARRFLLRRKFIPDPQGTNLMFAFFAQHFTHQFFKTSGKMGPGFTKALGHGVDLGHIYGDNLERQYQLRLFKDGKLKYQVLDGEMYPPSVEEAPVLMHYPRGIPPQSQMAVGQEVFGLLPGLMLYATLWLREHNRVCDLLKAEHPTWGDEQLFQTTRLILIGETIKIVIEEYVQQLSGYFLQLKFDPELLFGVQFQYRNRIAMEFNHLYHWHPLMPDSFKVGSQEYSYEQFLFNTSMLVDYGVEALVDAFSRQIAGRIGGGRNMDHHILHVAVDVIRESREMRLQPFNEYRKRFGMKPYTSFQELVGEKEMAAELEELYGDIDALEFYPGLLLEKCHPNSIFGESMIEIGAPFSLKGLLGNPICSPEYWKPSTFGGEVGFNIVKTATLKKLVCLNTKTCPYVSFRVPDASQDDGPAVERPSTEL

Histamine H3 receptor = Histamine H3 receptor (Homo sapiens, UniProt Q9Y5N1)
Sequence of Histamine H3 receptor (Q9Y5N1 whole entry): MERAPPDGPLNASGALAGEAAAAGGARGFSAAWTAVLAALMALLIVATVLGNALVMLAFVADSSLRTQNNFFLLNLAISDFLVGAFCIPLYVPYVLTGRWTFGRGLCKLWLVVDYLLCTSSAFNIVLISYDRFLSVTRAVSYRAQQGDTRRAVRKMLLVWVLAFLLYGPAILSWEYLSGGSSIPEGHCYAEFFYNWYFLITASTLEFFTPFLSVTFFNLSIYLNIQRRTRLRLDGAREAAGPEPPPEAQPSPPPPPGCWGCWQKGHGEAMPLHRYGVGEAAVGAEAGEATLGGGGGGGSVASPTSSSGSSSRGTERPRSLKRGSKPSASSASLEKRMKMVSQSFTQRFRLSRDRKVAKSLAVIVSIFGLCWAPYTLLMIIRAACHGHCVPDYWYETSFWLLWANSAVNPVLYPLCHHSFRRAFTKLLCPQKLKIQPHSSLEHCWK

[3] = molecular target: T2, Alpha-2B adrenergic receptor (Homo sapiens, UniProt P18089)
T2 sequence (P18089 whole entry): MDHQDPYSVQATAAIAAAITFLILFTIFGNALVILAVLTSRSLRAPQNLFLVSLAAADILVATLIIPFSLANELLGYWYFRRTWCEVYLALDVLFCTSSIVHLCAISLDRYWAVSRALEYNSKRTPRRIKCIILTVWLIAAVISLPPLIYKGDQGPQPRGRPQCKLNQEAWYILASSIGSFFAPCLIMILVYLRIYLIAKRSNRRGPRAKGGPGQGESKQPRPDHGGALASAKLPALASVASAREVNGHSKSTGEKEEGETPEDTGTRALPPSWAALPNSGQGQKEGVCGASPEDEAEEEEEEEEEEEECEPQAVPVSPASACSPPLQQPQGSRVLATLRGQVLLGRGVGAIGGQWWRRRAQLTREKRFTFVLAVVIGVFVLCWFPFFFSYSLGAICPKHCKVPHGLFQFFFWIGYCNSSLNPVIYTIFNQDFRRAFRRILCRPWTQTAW

[4] = molecular target: 5-hydroxytryptamine receptor 2A (Homo sapiens, UniProt P28223); assay type: functional, cell-based
Sequence of 5-hydroxytryptamine receptor 2A (P28223 whole entry): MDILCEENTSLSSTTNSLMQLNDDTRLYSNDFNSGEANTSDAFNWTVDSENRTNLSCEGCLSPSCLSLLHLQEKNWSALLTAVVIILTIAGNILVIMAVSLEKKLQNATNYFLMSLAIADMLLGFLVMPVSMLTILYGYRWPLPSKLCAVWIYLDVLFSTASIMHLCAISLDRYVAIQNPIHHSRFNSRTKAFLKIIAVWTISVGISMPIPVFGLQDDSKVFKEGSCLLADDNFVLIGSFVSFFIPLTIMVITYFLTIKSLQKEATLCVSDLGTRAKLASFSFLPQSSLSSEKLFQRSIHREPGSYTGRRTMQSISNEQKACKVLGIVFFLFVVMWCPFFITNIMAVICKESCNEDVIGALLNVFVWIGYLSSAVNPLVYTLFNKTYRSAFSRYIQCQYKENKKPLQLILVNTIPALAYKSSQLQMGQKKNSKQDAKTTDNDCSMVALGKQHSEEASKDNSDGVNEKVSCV

[5] = molecular target: Kappa-type opioid receptor (Homo sapiens, UniProt P41145)
Sequence of Kappa-type opioid receptor (P41145 whole entry): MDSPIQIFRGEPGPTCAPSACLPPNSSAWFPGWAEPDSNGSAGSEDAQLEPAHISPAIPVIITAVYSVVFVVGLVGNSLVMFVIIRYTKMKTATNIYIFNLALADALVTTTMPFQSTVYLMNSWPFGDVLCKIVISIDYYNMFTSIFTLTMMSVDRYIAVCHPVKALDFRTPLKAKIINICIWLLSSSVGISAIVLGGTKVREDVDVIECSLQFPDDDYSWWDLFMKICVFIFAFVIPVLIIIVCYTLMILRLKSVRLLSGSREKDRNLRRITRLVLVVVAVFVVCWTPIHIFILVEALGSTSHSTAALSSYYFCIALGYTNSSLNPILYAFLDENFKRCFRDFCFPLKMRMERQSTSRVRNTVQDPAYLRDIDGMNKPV

Thromboxane A2 receptor = molecular target: T3, Thromboxane A2 receptor (Homo sapiens, UniProt P21731)
T3 sequence (P21731 whole entry): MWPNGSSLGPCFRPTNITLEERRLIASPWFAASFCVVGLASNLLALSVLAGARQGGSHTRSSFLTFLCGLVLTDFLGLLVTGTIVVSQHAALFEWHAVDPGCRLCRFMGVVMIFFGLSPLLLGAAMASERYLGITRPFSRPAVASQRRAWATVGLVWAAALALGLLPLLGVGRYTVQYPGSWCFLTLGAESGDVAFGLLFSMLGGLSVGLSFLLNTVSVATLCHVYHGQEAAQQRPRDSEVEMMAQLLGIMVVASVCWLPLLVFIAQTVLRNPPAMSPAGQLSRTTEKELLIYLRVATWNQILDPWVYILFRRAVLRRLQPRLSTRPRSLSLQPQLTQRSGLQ
Also: assay procedure not described here.

Structure (SMILES) | AC50 [1] [µM] | AC50 [2] [µM] | AC50 (Histamine H3 receptor) [µM] | AC50 [3] [µM] | AC50 [4] [µM] | AC50 [5] [µM] | AC50 (Thromboxane A2 receptor) [µM]
O=c1[nH]cc(F)c(=O)[nH]1 [FLUOROURACIL] | > 30 | > 30 | > 30 |  |  |  | 
CCOC(=O)Nc1ccc(NCc2ccc(F)cc2)nc1N [FLUPIRTINE] |  |  | > 30 | > 30 | > 10 | 18 | 29
N[C@@H](Cc1cc(I)c(Oc2cc(I)c(O)c(I)c2)c(I)c1)C(=O)O [LEVOTHYROXINE] |  |  | > 30 | > 30 | > 30 | > 30 | 
CN(C)CCc1c[nH]c2ccc(CS(=O)(=O)N3CCCC3)cc12 [ALMOTRIPTAN] |  |  | > 30 | 30 | > 30 | > 30 | 
CCN(CCO)CCCC(C)Nc1ccnc2cc(Cl)ccc12 (stereo not drawn) [HYDROXYCHLOROQUINE] |  |  |  |  |  | > 10 | > 10
CS(=O)(=O)Nc1ccc([N+](=O)[O-])cc1Oc1ccccc1 [NIMESULIDE] | > 30 |  | > 30 |  |  | > 30 | 27
COC(=O)CCc1ccc(OCC(O)CNC(C)C)cc1 (stereo not drawn) [ESMOLOL] |  |  | > 30 |  |  | > 30 | > 30
C[C@@H](O)[C@H]1C(=O)N2C(C(=O)O)=C(SCCN=CN)C[C@H]12 [IMIPENEM ANHYDROUS] |  |  | 180 | > 300 | > 300 |  | 
c1cnc2cc3c(cc2n1)[C@@H]1CNC[C@H]3C1 [VARENICLINE] |  |  | > 30 | > 30 | > 30 |  | 
CC(C)/N=c1\cc2n(-c3ccc(Cl)cc3)c3ccccc3nc-2cc1Nc1ccc(Cl)cc1 [CLOFAZIMINE] |  |  | > 30 | > 30 | > 30 | 14 | > 30
O=C(O)COC(=O)Cc1ccccc1Nc1c(Cl)cccc1Cl [ACECLOFENAC] |  |  | > 10 |  |  | > 10 | 2.54
CC(=O)SCC(Cc1ccccc1)C(=O)NCC(=O)OCc1ccccc1 (stereo not drawn) [RACECADOTRIL] |  |  | > 30 | > 30 | > 30 | 8.6 | > 30
CNC1(C)C2CCC(C2)C1(C)C (stereo not drawn) [MECAMYLAMINE] |  |  |  | > 10 | > 10 | > 10 | > 10
CC(C)NCC(O)COc1ccc(CC(N)=O)cc1 (stereo not drawn) [ATENOLOL] |  |  | > 30 |  |  | > 30 | > 30
CO[C@@H]1[C@@H](OC(N)=O)[C@@H](O)[C@H](Oc2ccc3c(O)c(NC(=O)c4ccc(O)c(CC=C(C)C)c4)c(=O)oc3c2C)OC1(C)C [NOVOBIOCIN] |  |  | > 30 | > 30 | > 30 |  | 
CN1CC2c3ccccc3Oc3ccc(Cl)cc3C2C1 (stereo not drawn) [ASENAPINE] |  |  | > 30 |  | 0.0002 |  | 
NCCCCCC(=O)O [AMINOCAPROIC ACID] |  |  | > 10 |  |  | > 10 | > 10
O=C(O)[C@H]1/C(=C/CO)O[C@@H]2CC(=O)N21 [CLAVULANIC ACID] |  |  | > 30 | > 30 | > 30 |  | 
O=C(c1ccccc1)c1ccc2n1CCC2C(=O)O (stereo not drawn) [KETOROLAC] |  |  | > 10 |  |  | > 30 | > 10
C[C@H](Cn1cnc2c(N)ncnc21)OCP(=O)(O)O [TENOFOVIR ANHYDROUS] |  |  | > 30 | > 30 | > 30 | > 30 | > 30
O=NN(CCCl)C(=O)NC1CCCCC1 [LOMUSTINE] | > 30 | > 30 |  |  |  |  | 
OCCOCCN1CCN(C(c2ccccc2)c2ccc(Cl)cc2)CC1 (stereo not drawn) [HYDROXYZINE] |  |  | > 10 | 8 | 6 | 8.65 | > 30

Structure (SMILES) | AC50 [1] [µM] | AC50 [2] [µM] | AC50 (Histamine H3 receptor) [µM] | AC50 [3] [µM] | AC50 [4] [µM] | AC50 [5] [µM] | AC50 (Thromboxane A2 receptor) [µM]
C[C@H](CCC(=O)O)[C@H]1CC[C@H]2[C@@H]3[C@H](O)C[C@@H]4C[C@H](O)CC[C@]4(C)[C@H]3CC[C@]12C [CHENODIOL] |  |  | > 30 | > 30 | > 30 |  | 
NCCCNCCSP(=O)(O)O [AMIFOSTINE] |  |  | > 30 |  |  | > 30 | > 30
C[C@]12CCC(=O)C=C1CC[C@H]1[C@@H]3CC[C@](O)(C(=O)CO)[C@@]3(C)C[C@H](O)[C@@]12F [FLUDROCORTISONE] |  |  | > 10 | > 10 | > 30 | > 10 | > 30
CC[N+](CC)(CCNC(=O)C(=O)NCC[N+](CC)(CC)Cc1ccccc1Cl)Cc1ccccc1Cl [AMBENONIUM] |  |  | 21 | > 30 | > 30 | 0.7 | > 30
CC(C)C[C@H](NC(=O)[C@H](Cc1ccccc1)NC(=O)c1cnccn1)B(O)O [BORTEZOMIB] |  |  | > 30 | > 30 | > 30 | > 30 | > 30
NCC1(CC(=O)O)CCCCC1 [GABAPENTIN] | > 30 | > 30 | > 30 |  |  | > 10 | > 30
COc1cc2c(cc1OC)C1CC(=O)C(CC(C)C)CN1CC2 (stereo not drawn) [TETRABENAZINE] |  |  | > 30 | > 30 | > 30 |  | 
CCN(CC)CCn1c(=O)c(Cc2ccc(OC)cc2)nc2ccccc21 [CAROVERINE] |  |  | 2.38 | 21 | 9.7 | 5.34 | > 30
CC(C)(CO)c1cc2cc(NC(=O)C3(c4ccc5c(c4)OC(F)(F)O5)CC3)c(F)cc2n1C[C@@H](O)CO [TEZACAFTOR] |  |  | > 30 | > 30 | 16 |  | 
O=C(O)[C@@H](S)[C@@H](S)C(=O)O | > 30 | > 30 |  |  |  |  | 
CN(C)CCOC(c1ccc(Cl)cc1)c1ccccn1 (stereo not drawn) [CARBINOXAMINE] |  |  | 3.5 | 19 | > 30 | > 30 | 
CCOc1ccccc1OCCN[C@H](C)Cc1ccc(OC)c(S(N)(=O)=O)c1 [TAMSULOSIN] |  |  | > 10 | 1.9 | > 30 | > 30 | > 30
Nc1c2c(nc3ccccc13)CCCC2O (stereo not drawn) [VELNACRINE] |  |  | > 30 | > 30 | > 30 |  | 
C[C@H](CS)C(=O)N1CCC[C@H]1C(=O)O [CAPTOPRIL] |  |  | > 10 |  |  | > 10 | 
C=CC1=C(C(=O)O)N2C(=O)[C@@H](NC(=O)/C(=N\O)c3csc(N)n3)[C@H]2SC1 |  |  | > 10 | > 10 | > 30 | > 10 | > 30
CC(=O)NC[C@H]1CN(c2ccc(N3CCOCC3)c(F)c2)C(=O)O1 [LINEZOLID] |  |  | > 30 | > 30 |  | > 30 | > 30
Cn1cnc2c(F)c(Nc3ccc(Br)cc3F)c(C(=O)NOCCO)cc21 [BINIMETINIB] |  |  | > 30 | > 30 | > 30 |  | 
CCC1(c2ccccc2)C(=O)NCNC1=O [PRIMIDONE] |  |  |  |  |  | > 10 | > 10
Nc1nnc(-c2cccc(Cl)c2Cl)c(N)n1 [LAMOTRIGINE] |  |  | > 10 |  |  | > 10 | > 30
CCC[C@@]1(CCc2ccccc2)CC(O)=C([C@H](CC)c2cccc(NS(=O)(=O)c3ccc(C(F)(F)F)cn3)c2)C(=O)O1 |  |  | > 30 | > 30 | 11 |  | 
CCOCC(O)COc1ccc(NC(=O)CC[S+](C)C)cc1 (stereo not drawn) |  |  | > 30 | > 30 | > 30 |  | 
